Data from the NIST ThermoML archive (doi:10.1021/acs.jced.6b00750).
Numbers after ± are expanded uncertainties.

Assay: xn = mol fraction of the nth substance listed
Conditions: Liquid; for mass density: Vibrating wire densiometer; for viscosity: Vibrating wire viscometry

CCCCCCCCCCCCCCCC [hexadecane] + O=C=O
Conditions	mass density [kg/m3]	viscosity [mPa·s]
373.08 K, 80110 kPa, x2 = 0.727	813.1 ± 2.5	0.581 ± 0.013
373.08 K, 80560 kPa, x2 = 0.069	773.5 ± 2.3	1.794 ± 0.038
373.08 K, 99990 kPa, x2 = 0.727	828.7 ± 2.5	0.659 ± 0.015
373.08 K, 100830 kPa, x2 = 0.069	783.5 ± 2.4	2.087 ± 0.047
373.08 K, 117640 kPa, x2 = 0.727	840.7 ± 2.5	0.735 ± 0.017
373.11 K, 20760 kPa, x2 = 0.5877	745.5 ± 2.3	0.463 ± 0.011
373.11 K, 20790 kPa, x2 = 0.5877	745.5 ± 2.3	0.463 ± 0.011
373.11 K, 40220 kPa, x2 = 0.5877	768.7 ± 2.4	0.564 ± 0.013
373.11 K, 60460 kPa, x2 = 0.5877	787.7 ± 2.4	0.67 ± 0.015
373.11 K, 80240 kPa, x2 = 0.5877	803.1 ± 2.4	0.775 ± 0.018
423.11 K, 11500 kPa, x2 = 0.069	694.2 ± 2.1	0.574 ± 0.013
423.11 K, 11890 kPa, x2 = 0.069	694.7 ± 2.1	0.576 ± 0.013
423.11 K, 21700 kPa, x2 = 0.069	705.2 ± 2.2	0.645 ± 0.015
423.11 K, 25910 kPa, x2 = 0.5877	708.9 ± 2.2	0.328 ± 0.008
423.11 K, 25970 kPa, x2 = 0.5877	709.4 ± 2.2	0.33 ± 0.008
423.11 K, 40190 kPa, x2 = 0.5877	730.3 ± 2.3	0.384 ± 0.009
423.11 K, 40710 kPa, x2 = 0.069	722.5 ± 2.2	0.778 ± 0.017
423.11 K, 42080 kPa, x2 = 0.727	730.1 ± 2.3	0.296 ± 0.008
423.11 K, 42200 kPa, x2 = 0.727	730.3 ± 2.3	0.296 ± 0.008
423.11 K, 60240 kPa, x2 = 0.5877	753.3 ± 2.3	0.462 ± 0.011
423.11 K, 60280 kPa, x2 = 0.727	755.6 ± 2.3	0.353 ± 0.009
423.11 K, 60590 kPa, x2 = 0.069	737.2 ± 2.2	0.929 ± 0.02
423.11 K, 80390 kPa, x2 = 0.727	777.7 ± 2.4	0.412 ± 0.01
423.11 K, 80460 kPa, x2 = 0.5877	772 ± 2.3	0.537 ± 0.012
423.11 K, 80740 kPa, x2 = 0.069	750 ± 2.3	1.083 ± 0.023
423.11 K, 100360 kPa, x2 = 0.727	795.9 ± 2.4	0.471 ± 0.011
423.11 K, 100800 kPa, x2 = 0.5877	787.9 ± 2.4	0.614 ± 0.014
423.11 K, 101550 kPa, x2 = 0.069	761.6 ± 2.3	1.253 ± 0.027
423.11 K, 118170 kPa, x2 = 0.5877	799.8 ± 2.4	0.683 ± 0.015
423.11 K, 120210 kPa, x2 = 0.727	811.4 ± 2.5	0.529 ± 0.012
473.15 K, 43620 kPa, x2 = 0.5877	697.7 ± 2.2	0.293 ± 0.008
473.15 K, 43720 kPa, x2 = 0.5877	697.7 ± 2.2	0.292 ± 0.008
473.15 K, 60700 kPa, x2 = 0.5877	720.7 ± 2.2	0.343 ± 0.009
473.15 K, 80450 kPa, x2 = 0.5877	742 ± 2.3	0.402 ± 0.01
473.15 K, 100840 kPa, x2 = 0.5877	760.2 ± 2.3	0.46 ± 0.011
473.15 K, 120610 kPa, x2 = 0.5877	775.2 ± 2.4	0.52 ± 0.012
473.26 K, 61090 kPa, x2 = 0.727	718.9 ± 2.2	0.267 ± 0.007
473.26 K, 61330 kPa, x2 = 0.727	719.1 ± 2.2	0.268 ± 0.007
473.26 K, 80480 kPa, x2 = 0.727	744 ± 2.3	0.313 ± 0.008
473.26 K, 100590 kPa, x2 = 0.727	765.1 ± 2.3	0.36 ± 0.009
473.26 K, 120860 kPa, x2 = 0.727	783 ± 2.4	0.407 ± 0.01
